Results reported in PubChem BioAssay (NCI).
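Cells were grown in 96-well plates and exposed to each compound for 48 hours at five concentrations; endpoints were interpolated linearly between bracketing concentrations, or set to the highest concentration if not reached. GI50: concentration for 50% inhibition of growth. TGI denotes the concentration required for complete inhibition of growth.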

Key:
Assay in all cases: NCI tumour cell line growth inhibition, 48 h
MDA-MB-468 breast = system: MDA-MB-468 breast
HS 578T breast = system: HS 578T breast
SK-MEL-2 melanoma = system: SK-MEL-2 melanoma
A549 NSCLC = system: A549 NSCLC
RXF 393 renal = system: RXF 393 renal
CAKI-1 renal = system: CAKI-1 renal
HOP-92 NSCLC = system: HOP-92 NSCLC
HT29 colon = system: HT29 colon
PC-3 prostate = system: PC-3 prostate
HCC-2998 colon = system: HCC-2998 colon
ACHN renal = system: ACHN renal
CCRF-CEM leukemia = system: CCRF-CEM leukemia
LOX IMVI melanoma = system: LOX IMVI melanoma
NCI-H522 lung = system: NCI-H522 lung
HCT-116 colon = system: HCT-116 colon
HL-60(TB) leukemia = system: HL-60(TB) leukemia
HOP-62 NSCLC = system: HOP-62 NSCLC
M14 melanoma = system: M14 melanoma
SF-539 CNS = system: SF-539 CNS
UACC-62 melanoma = system: UACC-62 melanoma
SN12C renal = system: SN12C renal
SK-OV-3 ovarian = system: SK-OV-3 ovarian
OVCAR-4 ovarian = system: OVCAR-4 ovarian
MDA-MB-435 = system: MDA-MB-435
T-47D breast = system: T-47D breast
HCT-15 colon = system: HCT-15 colon
SW-620 colon = system: SW-620 colon
MOLT-4 leukemia = system: MOLT-4 leukemia
SNB-19 CNS = system: SNB-19 CNS
KM12 colon = system: KM12 colon
NCI-H23 lung = system: NCI-H23 lung
COLO 205 colon = system: COLO 205 colon
EKVX NSCLC = system: EKVX NSCLC
RPMI-8226 leukemia = system: RPMI-8226 leukemia
OVCAR-3 ovarian = system: OVCAR-3 ovarian
SF-295 CNS = system: SF-295 CNS
K-562 leukemia = system: K-562 leukemia
SNB-75 CNS = system: SNB-75 CNS
786-0 renal = system: 786-0 renal
DU-145 prostate = system: DU-145 prostate
SR leukemia = system: SR leukemia
SF-268 CNS = system: SF-268 CNS
OVCAR-8 ovarian = system: OVCAR-8 ovarian
OVCAR-5 ovarian = system: OVCAR-5 ovarian
MALME-3M melanoma = system: MALME-3M melanoma
BT-549 breast = system: BT-549 breast

## Cc1cc([N+](=O)[O-])c(NS(=O)(=O)c2cccc(C(=O)O)c2)cc1-c1cccnc1
MDA-MB-468 breast
  GI50: > 100000 nM
  TGI: > 100000 nM

## CN1CCN(C(=O)C(C)(C)c2ccc(C(=O)Nc3cn4cc(-c5ccncc5)ccc4n3)cc2)CC1
MDA-MB-468 breast
  GI50: 162 nM
  TGI: 1180 nM

## Cc1cc(F)ccc1S(=O)(=O)Nc1cc(-c2c(O)ccc3ccccc23)c(O)c2ccccc12
MDA-MB-468 breast
  GI50: 1650 nM
  TGI: 3700 nM

## O=C(Nc1ccc(Br)cc1F)c1cc(I)ccc1O
MDA-MB-468 breast
  GI50: 2170 nM
  TGI: 6220 nM

## Cc1ccccc1OCC(O)CN1CCN(c2ccc(Cl)cc2)CC1 (centres undefined)
MDA-MB-468 breast
  GI50: 17400 nM
  TGI: 35400 nM

## COc1cccc(-c2c[nH]c3c(N/N=C/c4ccncc4)ncnc23)c1
MDA-MB-468 breast
  GI50: 848 nM
  TGI: 3890 nM

## Cc1c(Cl)cccc1C(=O)Nc1nc2c(s1)CN(C(=O)c1ccc(C(F)(F)F)cc1)CC2
MDA-MB-468 breast
  GI50: 36.5 nM
  TGI: > 35700 nM

## COc1ccc2c(c1)c(CC(=O)[Se]C)c(C)n2C(=O)c1ccc(Cl)cc1
MDA-MB-468 breast
  GI50: > 419 nM
  TGI: > 681 nM

## C=C(C)[C@@H]1CC[C@]2(C(=O)N[C@H](CO)Cc3ccccc3)CC[C@]3(C)[C@H](CC[C@@H]4[C@@]5(C)CCCNC(C)(C)[C@@H]5CC[C@]43C)[C@@H]12
MDA-MB-468 breast
  GI50: 1520 nM
  TGI: 3030 nM

## Nc1ncnc2c1N=C(c1ccc3c(c1)OCO3)CC(c1ccc([N+](=O)[O-])cc1)N2 (centres undefined)
MDA-MB-468 breast
  GI50: 25200 nM
  TGI: 60400 nM

## CC1=C(C(=O)Nc2ccc3n[nH]c(C)c3c2)C(c2ccc(C(F)(F)F)cc2)CC(=O)N1 (centres undefined)
MDA-MB-468 breast
  GI50: 7090 nM
  TGI: > 25000 nM

## COc1ccc(CCN2CC=Cn3c2nc2ccccc2c3=O)cc1
MDA-MB-468 breast
  GI50: 81.6 nM
  TGI: 11800 nM

## COc1ccc(C/C(C)=C(/c2ccc(OCCN3CCCCC3)cc2)c2ccc(OC(=O)NCc3ccccc3)cc2)cc1
MDA-MB-468 breast
  GI50: 400 nM
  TGI: 789 nM

## CCNCCCn1c2c(c3ccc(Cl)cc3c1=O)C(=O)c1cc(OC)cnc1-2
MDA-MB-468 breast
  GI50: 249 nM
  TGI: 4300 nM

## Cc1[nH]c2ccccc2c1CCCO
MDA-MB-468 breast
  GI50: > 100000 nM
  TGI: > 100000 nM

## Cc1ccc(S(=O)(=O)c2c(COC(=O)c3cccc(C)c3)c(-c3ccccc3)nn2C)cc1
MDA-MB-468 breast
  GI50: > 100000 nM
  TGI: > 100000 nM

## O=C1OCC2=C1C(c1cccc(Cl)c1)c1cc3c(cc1N2CCO)OCCO3 (centres undefined)
MDA-MB-468 breast
  GI50: 26.5 nM
  TGI: 516 nM

## CN(C)CCN1C(=O)c2c(c3c4ccccc4n4c3c3c2c2ccccc2n3C2CC(O)C(O)C4(C)O2)C1=O (centres undefined)
MDA-MB-468 breast
  GI50: 1520 nM
  TGI: 5650 nM

## O=C1c2c(c3c4cc(Br)ccc4[nH]c3c3ccc4ccccc4c23)C(=O)N1CCN1CCNCC1
MDA-MB-468 breast
  GI50: 1800 nM
  TGI: 4480 nM

## CN1CCN(C(=O)Oc2cc3c(c4ccccc24)[C@H](CCl)CN3C(=O)c2cc3cc(OCCCN4CCC4)ccc3[nH]2)[C@@H]2CSSC[C@H]21
HS 578T breast
  GI50: 27.9 nM
  TGI: 124 nM
SK-MEL-2 melanoma
  GI50: 18.7 nM
  TGI: 35.2 nM
A549 NSCLC
  GI50: 1.79 nM
  TGI: > 10000 nM
RXF 393 renal
  GI50: 5.66 nM
  TGI: 19 nM
CAKI-1 renal
  GI50: 2.82 nM
  TGI: > 10000 nM
HOP-92 NSCLC
  GI50: 18.2 nM
  TGI: 62.9 nM
HT29 colon
  GI50: 8.29 nM
  TGI: > 10000 nM
PC-3 prostate
  GI50: 19.7 nM
  TGI: 981 nM
HCC-2998 colon
  GI50: 3.47 nM
  TGI: 15.2 nM
ACHN renal
  GI50: 2.37 nM
  TGI: 7.23 nM
CCRF-CEM leukemia
  GI50: 7.41 nM
  TGI: 3320 nM
LOX IMVI melanoma
  GI50: 2.2 nM
  TGI: 15.8 nM
NCI-H522 lung
  GI50: 10.9 nM
  TGI: 35.4 nM
HCT-116 colon
  GI50: 6.75 nM
  TGI: > 10000 nM
HL-60(TB) leukemia
  GI50: 9.94 nM
  TGI: 321 nM
HOP-62 NSCLC
  GI50: 5.17 nM
  TGI: 60.1 nM
M14 melanoma
  GI50: 5.63 nM
  TGI: 21.2 nM
SF-539 CNS
  GI50: 5.25 nM
  TGI: 21 nM
UACC-62 melanoma
  GI50: 2.2 nM
  TGI: 10.5 nM
SN12C renal
  GI50: 10.5 nM
  TGI: 98.6 nM
SK-OV-3 ovarian
  GI50: 15 nM
  TGI: > 10000 nM
OVCAR-4 ovarian
  GI50: 27.5 nM
  TGI: 93.4 nM
MDA-MB-435
  GI50: 12.7 nM
  TGI: 38.1 nM
T-47D breast
  GI50: 14.8 nM
  TGI: > 10000 nM
HCT-15 colon
  GI50: 3.82 nM
  TGI: 24.2 nM
SW-620 colon
  GI50: 2.28 nM
  TGI: 1480 nM
MDA-MB-468 breast
  GI50: 2.55 nM
  TGI: 7.92 nM
MOLT-4 leukemia
  GI50: 4.45 nM
  TGI: 223 nM
SNB-19 CNS
  GI50: 5.79 nM
  TGI: 76.2 nM
KM12 colon
  GI50: 15.7 nM
  TGI: 1520 nM
NCI-H23 lung
  GI50: 1.74 nM
  TGI: 5.41 nM
COLO 205 colon
  GI50: 14.8 nM
  TGI: 33.8 nM
EKVX NSCLC
  GI50: 12.2 nM
  TGI: 40.6 nM
RPMI-8226 leukemia
  GI50: 23.2 nM
  TGI: 1840 nM
OVCAR-3 ovarian
  GI50: 27.4 nM
  TGI: > 10000 nM
SF-295 CNS
  GI50: 2.25 nM
  TGI: 6.82 nM
K-562 leukemia
  GI50: 4.4 nM
  TGI: > 10000 nM
SNB-75 CNS
  GI50: 19.7 nM
  TGI: 75 nM
786-0 renal
  GI50: 13.1 nM
  TGI: 40 nM
DU-145 prostate
  GI50: 3.91 nM
  TGI: 2440 nM
SR leukemia
  GI50: 1.68 nM
  TGI: 39.2 nM
SF-268 CNS
  GI50: 8.99 nM
  TGI: 293 nM
OVCAR-8 ovarian
  GI50: 3.29 nM
  TGI: 129 nM
OVCAR-5 ovarian
  GI50: 6.88 nM
  TGI: 40.8 nM
MALME-3M melanoma
  GI50: 6.37 nM
  TGI: 20 nM
BT-549 breast
  GI50: 21.3 nM
  TGI: 81.8 nM

## COc1cc(C(=O)c2c(-c3ccccc3)oc3c(OC)cccc23)cc(OC)c1OC
MDA-MB-468 breast
  GI50: 83.9 nM
  TGI: 11100 nM

## COc1ccc2c(c1)NC1=C(C(=O)OC1)C2c1cc(OC)c2c(c1)OCO2 (centres undefined)
MDA-MB-468 breast
  GI50: < 15.4 nM
  TGI: 61 nM

## C#CC#CC#CC#CC#CC#CC#CC#CCC1OCC(COC(=O)O[C@@H](C(=O)O[C@H]2C[C@@]3(O)[C@@H](OC(=O)c4ccccc4)[C@@H]4[C@]5(OC(C)=O)CO[C@@H]5C[C@H](O)[C@@]4(C)C(=O)[C@H](OC(C)=O)C(=C2C)C3(C)C)[C@@H](NC(=O)c2ccccc2)c2ccccc2)O1 (some centres undefined)
MDA-MB-468 breast
  GI50: 67 nM
  TGI: 423 nM

## Cc1cc(NC(=O)NC(=O)c2ccccc2NC(=O)C(C)N)ccc1Oc1ncc(Br)cn1 (centres undefined)
MDA-MB-468 breast
  GI50: < 10 nM
  TGI: 28500 nM

## O=C(N/N=C/C=C/c1ccc([N+](=O)[O-])o1)c1cc2ccccc2cc1O
MDA-MB-468 breast
  GI50: 1360 nM
  TGI: 3220 nM

## [Cl][Sn]([c]1ccccc1)([c]1ccccc1)[c]1ccccc1
MDA-MB-468 breast
  GI50: 137 nM
  TGI: 326 nM

## Cn1ncnc1[C@H]1c2n[nH]c(=O)c3cc(F)cc(c23)N[C@@H]1c1ccc(F)cc1
MDA-MB-468 breast
  GI50: 1420 nM
  TGI: > 100000 nM

## O=C1C(Nc2ccc(Cl)cc2)=C(I)C(=O)c2ncccc21
MDA-MB-468 breast
  GI50: 1510 nM
  TGI: 3820 nM

## O=C(Nc1ccc(Cl)cc1)Nc1nc2ccc([N+](=O)[O-])cc2s1
MDA-MB-468 breast
  GI50: 862 nM
  TGI: 2380 nM

## O=C(Nc1cccc(-n2cc(-c3ccncc3)c(-c3ccc(Cl)c(O)c3)n2)c1)Nc1cc(C(F)(F)F)cc(C(F)(F)F)c1
MDA-MB-468 breast
  GI50: 264 nM
  TGI: 2650 nM

## CC1=C(c2cccc(O)c2)[C@H](c2ccc(OCCN3CC(CF)C3)cc2)Oc2ccc(O)cc21
MDA-MB-468 breast
  GI50: 2400 nM
  TGI: 6240 nM

## Cc1cc(NCCCN(C)C)c2ccc3c(ccc4c(NCCCN(C)C)cc(C)nc43)c2n1
MDA-MB-468 breast
  GI50: 153 nM
  TGI: 312 nM
